In patent publication US6486143B2, “6-amino- or 6-hydrazino-sulphonyl-3-quinolynyl-phosphonic acid compounds” (Les Laboratoires Servier, priority 2000, dated 2002):

**Q.** Which melting point does the source give for `O=c1[nH]c2cc(C(F)(F)F)c(S(=O)(=O)N3CCCCC3)cc2cc1P(=O)(O)O` [Example 32, 2-Oxo-6-(1-piperidylsulphonyl)-7-(trifluoromethyl)-1,2-dihydro-3-quinolylphosphonic Acid] here?
**A.** Its melting point is over 260 °C.
